pKi: −log10 of the molar value.

The assay has as its target aspartyl proteases, in particular, beta-secretase. Briefly: Ki of the compounds listed in Tables 1 and 2 (no method described). The conditions noted are these: Table 1, compounds of formula Ia, W is -(CH2)n-. Format: biochemical.
In the case of `CC(C)CN([C@@H](CCCCNC(=O)CSc1ccccc1)C(=O)O)S(=O)(=O)c1ccc([N+](=O)[O-])cc1` [Compound No. 154, Nα-isobutyl-Nα-(4-Tnitrobenzenesulfonyl)-Nε-phenylthioacetyl-L-lysine], the negative-log Ki (pKi) was 7.99.

In the case of `Cc1ccc(S(=O)(=O)N(CC(C)C)[C@@H](CCCCNC(=O)OCc2ccccc2)C(=O)OCc2ccccc2)cc1` [Compound No. 75, Nα-isobutyl-Nα-(4-methylbenzenesulfonyl)-Nε-benzyloxycarbonyl-L-lysine Benzyl Ester], the pKi was < 5.90.

On to `CC(C)CN([C@@H](CCCCNC(=O)CCc1ccc2c(c1)OCO2)C(=O)O)S(=O)(=O)c1ccc(N)cc1` [Compound No. 155, Nα-isobutyl-Nα-(4-aminobenzenesulfonyl)-Nε-(3,4-methylenedioxydihydrocinnamoyl)-L-lysine], for which the pKi is 7.80. The figure for `O=C(N[C@@H](CCCCNS(=O)(=O)c1cc(Cl)ccc1Cl)C(=O)O)OCC1c2ccccc2-c2ccccc21` [Compound No. 54, Nε-(2,5-dichlorobenzenesulfonyl)-Nα-(9-fluorenylmethoxycarbonyl)-L-lysine] is < 5.20; for `Nc1ccccc1S(=O)(=O)N[C@@H](CCCCNC(=O)OCC1c2ccccc2-c2ccccc21)C(=O)O` [Compound No. 105, Nα-(2-aminobenzenesulfonyl)-Nε-(9-fluorenylmethoxycarbonyl)-L-lysine] it is 4.80; for `O=C(N[C@H](CO)CCCCNS(=O)(=O)c1ccc(Br)cc1)OCC1c2ccccc2-c2ccccc21` [Compound No. 22, (2S)-(9-fluorenylmethoxycarbonylamino)-6-(4-bromobenzenesulfonylamino)-1-hexanol] it is < 5.22. The figure for `CC(C)CN(C(=O)c1ccccc1)[C@@H](CCCCNC(=O)OCC1c2ccccc2-c2ccccc21)C(=O)O` [Compound No. 46, Nα-isobutyl-Nα-benzoyl-Nε-(9-fluorenylmethoxycarbonyl)-Llysine] is < 7.00. The result for `CC(C)CN([C@@H](CCCCNC(=O)C=Cc1ccc2c(c1)OCO2)C(=O)O)S(=O)(=O)c1ccc([N+](=O)[O-])cc1` [Compound No. 163, Nα-isobutyl-Nα-(4-nitrobenzenesulfonyl)-Nε-(3,4-methylenedioxycinnamoyl)-L-lysine] reads < 6.52; that for `COC(=O)[C@H](CCCCNS(=O)(=O)c1ccc(Br)cc1)NC(=O)OCC1c2ccccc2-c2ccccc21` [Compound No. 15, Nα-(9-fluorenylmethoxycarbonyl)-Nε-(4-bromobenzenesulfonyl)-L-lysine Methyl Ester], 4.33. “Nα-(9-fluorenylmethoxycarbonyl)-L-lysyl-Nα-(9-fluorenylmethoxy-carbonyl)-Nε-(2,4,6trimethylbenzenesulfonyl)-L-lysine [compound 26]” gave a pKi of 4.20. This pKi and that of the compound before are within 0.2 log units of each other. The result for `CC(C)CN([C@@H](CCCCNC(=O)OCC1c2ccccc2-c2ccccc21)C(=O)O)S(=O)(=O)c1cccc2ccccc12` [Compound No. 8, Nα-isobutyl-Nα-(1-naphthalenesulfonyl)-Nε-(9-fluorenylmethoxycarbonyl)-L-lysine] reads 7.26; that for `O=C(NCCCC[C@H](NS(=O)(=O)c1ccc(Cl)cc1)C(=O)O)OCC1c2ccccc2-c2ccccc21` [Compound No. 72, Nα-(4-chlorobenzenesulfonyl)-Nε-(9-fluorenylmethoxycarbonyl)L-lysine], 5.62. On to `COc1ccccc1/C=C/C(=O)NCCCC[C@@H](C(=O)O)N(CC(C)C)S(=O)(=O)c1ccc([N+](=O)[O-])cc1` [Compound No. 161, Nα-isobutyl-Nα-(4-nitrobenzenesulfonyl)-Nε-(trans-2-methoxycinnamoyl)-L-lysine], for which the pKi was < 6.52. The figure for `Cc1ccc(S(=O)(=O)N(CC(C)C)C(CCCNC(=O)OCC2c3ccccc3-c3ccccc32)C(=O)O)cc1` (racemic) [Compound No. 6, Nα-isobutyl-Nα-(4-methylbenzenesulfonyl)-Nδ-(9-fluorenylmethoxycarbonyl)-DL-ornithine] is 6.74; for `Cc1ccc(S(=O)(=O)N(CC(C)C)[C@@H](CCCCNC(=O)C2c3ccccc3Oc3ccccc32)C(=O)O)cc1` [compound 85] it is 7.84; for `O=C(Cc1c[nH]c2ccccc12)N[C@@H](CCCCNS(=O)(=O)c1ccc(Br)cc1)C(=O)O` [Compound No. 29, Nα-(3-indoleacetyl)-Nε-(4-bromobenzenesulfonyl)-L-lysine] it is 4.98. The result for `Nc1ccc(S(=O)(=O)NCCCC[C@H](NC(=O)OCC2c3ccccc3-c3ccccc32)C(=O)O)cc1` [Compound No. 52, Nε-(4-aminobenzenesulfonyl)-Nα-(9-fluorenylmethoxycarbonyl)-L-lysine] reads 5.17; that for `CC(C)CN([C@@H](CCCCNC(=O)C1c2ccccc2Oc2ccccc21)C(=O)O)S(=O)(=O)c1ccc([N+](=O)[O-])cc1` [Compound No. 96, Nα-isobutyl-Nα-(4-nitrobenzenesulfonyl)-Nε-(9xanthenecarbonyl)-L-lysine], 7.36. `Cc1cc(C)c(S(=O)(=O)N(CC(C)C)[C@@H](CCCCNC(=O)OCC2c3ccccc3-c3ccccc32)C(=O)O)c(C)c1` [Compound No. 42, Nα-isobutyl-Nα-(2,4,6-trimethylbenzenesulfonyl)-Nε-(9-fluorenylmethoxycarbonyl)-L-lysine]: the pKi was < 7.00.

`O=C(N[C@@H](CCCCNS(=O)(=O)c1cccc(C(F)(F)F)c1)C(=O)O)OCC1c2ccccc2-c2ccccc21` [Compound No. 34, Nε-(3-trifluoromethylbenzenesulfonyl)-Nα-(9-fluorenylmethoxycarbonyl)-L-lysine] gave a pKi of 4.66.

As a reminder, the pKi is the negative decadic logarithm of the Ki, by convention in mol/L.

(Values after US20060079550A1, “Amino acid derivatives useful for the treatment of alzheimer's disease” (priority 2001, published 2006).)
